System: SARS2 replicon
Assay: microbe, parasite or virus in culture
Format: cell-based, SARS-CoV-2
Conditions: Severe acute respiratory syndrome coronavirus 2, HEK-293T, 24 hr, read-out: inhibition of fLuc

`CCC(CC)COC(=O)[C@H](C)N[P@](=O)(OC[C@H]1O[C@@](C#N)(c2ccc3c(N)ncnn23)[C@H](O)[C@@H]1O)Oc1ccccc1` [Remdesivir] gave an inhibition at 10 µM of 70%.

— patent publication US20230304041A1, “DUAL PROMOTER-DRIVEN AND DUAL REPORTER-[…]-COV-2 REPLICONS AND METHODS OF USE” (Rosalind Franklin University of Medicine & Science, priority 2022, published 2023)
